Results published in PMC4357465, “Tool Compounds Robustly Increase Turnover of an Artificial Substrate by Glucocerebrosidase in Human Brain Lysates” (PLoS ONE, 2015).
“Also recorded” adds a separate entry of the source.

Assays:
[1] = molecular target: T1, recombinant GBA3 (Homo sapiens, UniProt Q9H227); assay: cell-free 4MUG assay with recombinant GBA3; assay type: biochemical; details: for less potent against GBA3 than GBA1: selectivity GBA1 over GBA3
T1 construct: purchased R&D Systems 5969-GH-10
T1 sequence (Q9H227 1-469): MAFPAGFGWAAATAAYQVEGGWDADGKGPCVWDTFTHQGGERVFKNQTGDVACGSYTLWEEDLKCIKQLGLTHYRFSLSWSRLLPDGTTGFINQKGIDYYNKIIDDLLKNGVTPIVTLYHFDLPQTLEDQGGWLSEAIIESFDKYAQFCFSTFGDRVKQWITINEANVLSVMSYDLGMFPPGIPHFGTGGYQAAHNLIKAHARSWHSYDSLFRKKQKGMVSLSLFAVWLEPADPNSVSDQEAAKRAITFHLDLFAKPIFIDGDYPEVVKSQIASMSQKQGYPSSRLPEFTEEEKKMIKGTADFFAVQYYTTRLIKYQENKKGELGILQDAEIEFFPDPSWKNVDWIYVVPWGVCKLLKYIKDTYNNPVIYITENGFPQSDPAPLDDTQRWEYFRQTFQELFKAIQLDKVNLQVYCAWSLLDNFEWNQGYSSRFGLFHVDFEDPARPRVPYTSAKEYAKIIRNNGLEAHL
Description: After incubation, 100 μl of assay buffer was added to the plate. The assay buffer was composed of 0.1 M citric acid and 0.2 M sodium phosphate dibasic adjusted to pH = 5.4 unless stated otherwise (McIlvaine Buffer). […] For IC50 and EC50 experiments using compounds an assay buffer of pH 5.4 was used.
The substrate, 4-methylumbelliferyl β-D-glucopyranoside (4MUG, Sigma, M3633) was then added to the plate to a final concentration of 1.7 mM (25 μl). 4MUG was freshly solubilized in water at 37°C prior to each experiment. The recombinant protein, compound, assay buffer, and substrate were incubated at 37°C for 30 minutes.
In experiments directly comparing enzymatic activities of GBA1, GBA2 and GBA3 (S1 Fig., S2 Fig. c, d) the following conditions were used. […] A 10-fold intermediate solution of compound serial dilution was prepared in an assay buffer; half log dilutions were used. […] 2 mM solution of 4MUG was prepared in an assay buffer. To start the reaction, 4.5 μl/well of this solution was added to the enzyme plate and was incubated for 30 minutes at 37°C. To stop the reaction, a 1M glycine solution, adjusted to pH = 10 using 1M NaOH was used. […] To test the effect of sodium taurocholate (Sigma, T4009), the assay was performed using the same procedure described in this paragraph. The assay buffer contained either 0mM (same as above), 3 mM, 7 mM or 20 mM Sodium Taurocholate.

[2] = molecular target: T2, recombinant GBA2 (Homo sapiens, UniProt Q9HCG7); assay: cell-free 4MUG assay with recombinant GBA2; assay type: biochemical; details: dose response, within the concentrations tested
T2 construct: purchased Abcam ab163631
T2 sequence (Q9HCG7 1-927): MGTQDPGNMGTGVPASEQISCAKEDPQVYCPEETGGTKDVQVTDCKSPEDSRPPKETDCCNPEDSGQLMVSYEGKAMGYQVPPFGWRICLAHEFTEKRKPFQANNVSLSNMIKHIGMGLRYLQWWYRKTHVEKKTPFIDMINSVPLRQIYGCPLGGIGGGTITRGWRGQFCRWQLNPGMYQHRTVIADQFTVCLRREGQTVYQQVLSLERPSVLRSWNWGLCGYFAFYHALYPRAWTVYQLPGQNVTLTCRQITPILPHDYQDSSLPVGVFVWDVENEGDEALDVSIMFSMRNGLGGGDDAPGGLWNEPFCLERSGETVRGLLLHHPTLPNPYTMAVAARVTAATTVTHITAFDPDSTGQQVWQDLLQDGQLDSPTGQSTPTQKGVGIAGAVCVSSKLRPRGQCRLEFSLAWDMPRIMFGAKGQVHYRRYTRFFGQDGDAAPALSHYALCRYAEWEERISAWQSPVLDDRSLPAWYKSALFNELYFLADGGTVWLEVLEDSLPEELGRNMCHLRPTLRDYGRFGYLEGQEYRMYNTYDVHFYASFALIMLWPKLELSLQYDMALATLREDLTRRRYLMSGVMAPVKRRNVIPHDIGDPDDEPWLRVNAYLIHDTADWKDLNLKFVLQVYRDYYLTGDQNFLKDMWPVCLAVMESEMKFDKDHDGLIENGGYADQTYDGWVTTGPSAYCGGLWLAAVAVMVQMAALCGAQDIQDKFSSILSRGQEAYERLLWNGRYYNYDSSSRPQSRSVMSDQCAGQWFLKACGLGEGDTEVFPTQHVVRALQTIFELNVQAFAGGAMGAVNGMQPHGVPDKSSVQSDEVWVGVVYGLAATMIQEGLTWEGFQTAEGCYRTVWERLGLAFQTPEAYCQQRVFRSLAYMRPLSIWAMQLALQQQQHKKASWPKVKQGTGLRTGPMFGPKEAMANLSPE
Description: The assay buffer consisted of 44 mM Citric Acid, 111 mM Na2HPO4, pH 5.5, 0.1% Triton X-100. […] A 10-fold intermediate solution of compound serial dilution was prepared in an assay buffer; half log dilutions were used. In a black 384-well plate (ThermoFisher, 267461) we added 5 μl of enzyme solution and 1 μl of compounds when appropriate, and incubated for 30 minutes at room temperature. 2 mM solution of 4MUG was prepared in an assay buffer. To start the reaction, 4.5 μl/well of this solution was added to the enzyme plate and was incubated for 30 minutes at 37°C. To stop the reaction, a 1M glycine solution, adjusted to pH = 10 using 1M NaOH was used. The fluorescent signal was detected using the Envision Multilabel Plate Reader (Perkin Elmer) at excitation = 355nm and emission = 450nm.

SMILES	effect on activity of recombinant GBA3 ([1]; dose response, within the concentrations tested)	effect on activity of recombinant GBA2 [2]	effect on GBA3 activity ([1]; 1 μM)	less potent against GBA3 than GBA1 [1]	less potent against GBA3 than GBA1 ([1]; listed as isofagomine)	effect on activity of recombinant GBA2 ([2]; listed as isofagomine)
O[C@H]1[C@H](O)[C@@H](O)[C@@H]2O[C@@H]2[C@@H]1O [CBE]	did not inhibit; also recorded: does not alter activity	did not inhibit; also recorded: does not alter activity	–	–	–	–
OC[C@H]1CNC[C@@H](O)[C@@H]1O [Isofagomine, isofagomine]	–	almost no effect	did not have any substantial effect	> 100 fold	≥ 100 fold	Minimal effect
